Assay results reported in patent US5473074A, “Adenosine diphosphoribose polymerase binding nitroso aromatic compounds useful as retroviral inactivating agents, anti-retroviral agents and anti-tumor agents-54” (priority 1992, dated 1995).
Entries after “also recorded” stand apart in the source; their conditions may differ.

Tests used:
[1] = tested on: human leukemia cell lines (855-2, H9, HL-60, K562); assay: [3H]thymidine uptake, human leukemia cell lines (FIG. 2); assay type: cell-based
Protocol: FIGS. 2A-2F are composite of graphs displaying the inhibitory effects of the ADRPT ligands on (FIG. 2A) 855-2 cells (a cell line of human B-cell lineage acute lymphoblastic leukemia), (FIG. 2B) H9 cells (a cell line of human T-cell lineage acute lymphoblastic leukemia), (FIG. 2C) HL-60 cells (a cell line of human acute nonlymphoblastic leukemia) and (FIG. 2D) K562 cells (a cell line of human chronic myelogenous leukemia). These cells were cultured while under the influence of the growth factors in 10% fetal bovine serum (FCS), whereas in (FIG. 2E) and (FIG. 2F) the 855-2 cells were cultured in the presence of autocrine growth factor activity (AGF) or low molecular weight-B-cell growth factor (BCGF, a T-cell derived lymphokine), respectively.

HL-60 cells = assay: Colony formation (CFU) in semi-solid medium, HL-60; assay type: cell-based, human; conditions: single cells in semi-solid medium
[2] = tested on: cancer cells (855-2 and HL-60 leukemia, D32, D37 and CRL 7712 glioblastoma, 186 medulla tumor, L1210 murine leukemia, MDA-468 human breast tumor); assay: Functions of cancer cells in absence or presence of compounds (FIGS. 4-9); assay type: cell-based
Protocol: Experiments were performed in which the functions of various cancer cells (855-2 and HL-60 leukemia cells, D32, D37 and CRL 7712 glioblastoma cell lines, 186 medulla tumor cell line, L1210 murine leukemia cell line, MDA-468 human breast tumor cell line) and normal cells (neutrophil leukocytes and bone marrow or peripheral blood stream cells) were assessed in the absence or presence of the compounds.

855-2 cells = assay: MTT assay, cytocidal activity; assay type: cell-based, human; conditions: 10 μM, 100,000 cells/ml
Protocol: MTT (3-[4,5-[…]]-2,5-diphenyltetrazolium bromide) at 1 mg/ml was then added for 16 hours. The absorbance of the pelleted cell was then measured at 550 nm after adding DMSO to solubilze the cells.

[3] = target: Zn(HIV1-F1)-oligonucleotide complex (Human immunodeficiency virus type 1 lw12.3 isolate, UniProt Q70622); assay: NMR studies of Zn(HIV1-F1) nucleic acid binding; assay type: biochemical, HIV-1; conditions: two equivalents of NOBA (FIG. 11)
Source text: The downfield regions of the spectra show the signals of the aromatic and ribose H1' protons, and the upfield region contain signals of the methyl group protons. Dramatic spectral changes occur upon addition of oligonucleotide to Zn(HIV1-F1), including large upfield shifts of the Phe 2 and Ile 10 side chain=n signals and a downfield shifting and broadening of the guanosine-H8 proton signal (second from the top).
The reaction mechanism, schematically illustrated in FIG. 12, is consistent with the result of NMR analysis in FIGS. 10 and 11. The reaction mechanism proposed in FIG. 12 is a useful model but is not intended to limit the scope of the claimed invention.

[4] = tested on: HIV-1 (MN strain) virions; assay: Zinc loss from HIV-1 virions treated with NOBA; assay type: biochemical
Protocol: Experiments were performed to determine if NOBA is capable of ejecting zinc from intact virions. HIV-1 (MN strain) was produced, purified and concentrated as described in Bess et al., J. Virol. 66:840-847 (1992). The concentrated virus was diluted to 60 times that of culture fluid in TNE buffer (0.01M Tris-HCl, 0.1M NaCl, 1 mM EDTA, pH 7.2) and incubated with 3000 or 6000 μM NOBA at 37° C. The virus was then pelleted and washed with TNE buffer to remove weakly bound zinc. The quantity of zinc in the resulting viral pellets was determined as described in Bess et. al., J. Virol. 66:840-847 (1992).

[5] = PHA-PBL viability (MTT dye reduction); assay type: cell-based; conditions: human, read-out: concentration tolerated by human lymphocytes without major changes in cell metabolism
Protocol: PHA-PBL (10^6 /ml) were treated with increasing doses of NOBA for 24 hours in the presence of MTT substrate and the relative absorbance at 550 nm reflects the metabolic activity of the cells. The level of product formation in the absence of NOBA was considered to be 100% and all experimental values were normalized to that control value.
Experiments were performed in which the incubations with NOBA was carried out at 0°, 22°, and 37° C. […] In agreement with the negligible cytotoxic effect of C-nitroso drugs on non-tumor cells described elsewhere in this application, human lymphocytes tolerated NOBA up to 50 μM without major changes in cell metabolism, which was assayed by quantitative dye reduction as described in Mosaran, J. Imm. Methods 65:55-63 (1983).

cells / HIV = assay: Anti-tumor / anti-HIV (biological) action, general statement
[6] = tested on: human peripheral blood neutrophil leukocytes; assay: Superoxide generation by human neutrophils

With `NC(=O)c1cccc(N=O)c1` [NOBA, 3-nitrosobenzamide] the “inhibition of 3H-thymidine uptake, in words” value ([1]; 10 μM, 855-2, H9, HL-60, K562 cells) was “powerfully inhibited 3H-thymidine uptake”, the “molar concentrations needed to inhibit 3H-thymidine uptake, in words” value ([1]; each of the cell lines tested) was “able to inhibit 3H-thymidine uptake in lower molar concentrations than the other compounds” and the “colony formation, HL-60, in words” value (HL-60 cells) was “inhibit the ability of human leukemic cells (855-2 and HL-60) to form colonies”. For the same compound, the “activity against tumor cells, in words” value [2] was “highly effective (against tumor cells)”, the “killing of 855-2 cells (MTT), in words” value (855-2 cells) was “complete killing” and the “zinc ejection and loss of nucleic acid binding, in words” value [3] was “ejection of zinc with concomitant dissociation of the zinc finger nucleic acid complex; also recorded: NOBA-induced zinc ejection leads to loss of high-affinity nucleic acid binding function”. For the same compound, the “Zinc Loss” value ([4]; 3,000 μM, 2 h, 37° C.) was 52%, the “Zinc, NOBA-Treated Sample” value ([4]; 3,000 μM, 2 h, 37° C., control 0.21) was 0.11 µg/mL and the “Zinc Loss” value ([4]; 6,000 μM, 4 h, 37° C.) was 83%. For the same compound, the “Zinc, NOBA-Treated Sample” value ([4]; 6,000 μM, 4 h, 37° C., control 0.24) was 0.04 µg/mL, the “losses of the viral zinc” value ([4]; 3000 or 6000 μM, 37° C.) was 50-83% and the “infectivity of HIV-1 virions, in words” value ([4]; concentrated suspensions (60×)) was “complete loss of infectivity”. The “loss of viral proteins in the pellet, in words” value ([4]; p24 and gp120 competition RIA, SDS-PAGE) was “No significant loss of viral proteins”, the MNTC at 24 h [5] was at least 50 µM and the “anti-tumor and anti-HIV activity, in words” value (cells / HIV) was “highly active as anti-tumor and anti-HIV molecules”. The “effectiveness after short exposure of cells” value (cells / HIV; exposure as short as 30 minutes) was “effective even after exposure of cells for a period as short as 30 minutes”, the “superoxide generation by human neutrophils (mean + S.D., n = 11)” value ([6]; 10 μM, 10^5 PMN + PMA (control 55.9 ± 7.7)) was 44.4 ± 10.0 nmol O2^- /hr/10^5 cells and the “superoxide generation, in words” value ([6]; 10 μm) was “Only minor reductions in superoxide generation”.
